In article PMC8484168 (Cancer Chemotherapy and Pharmacology, 2021):

Experiments:
CYP3As = test system: CYP3As; set-up: method as in PMID 32129697; conditions: human liver microsomes, reversible inhibition; cited from earlier work
CYP3A4 = test system: CYP3A4; set-up: method as in PMID 32129697; conditions: human hepatocytes; cited from earlier work
[1] = set-up: method as in PMID 29799676; conditions: all dosages 40–500 mg QD or 240–840 mg BID; cited from earlier work
[2] = Rucaparib steady-state trough plasma concentration (Cmin); assay type: in vivo, human; conditions: rucaparib 600 mg BID from day 5
Text: This was a 2-part, phase 1, open-label, 2-arm DDI study in patients with advanced solid tumors. In Part 1 of the study, patients were screened for eligibility from day − 28 to − 2 and visited the study site from day − 1 to 23 (Fig. 1). […] To check steady-state plasma concentrations for rucaparib, a blood sample was collected prior to the dosing of rucaparib on days 5, 9, 11, 15, and 19–23.
Other PK parameters, calculated for the probe drugs, included half-life (t1/2), tmax, apparent total clearance of drug after oral administration (CL/F), and apparent volume of distribution during terminal phase (VZ/F). The PK parameter calculated for rucaparib at steady state was trough plasma concentration (Cmin). PK parameters were calculated by noncompartmental analysis using Phoenix WinNonlin, version 8.1 (Certara, Princeton, NJ).

[3] = Safety: TEAEs, Arm B (rucaparib + oral contraceptives)
Protocol: (§1) Safety was assessed separately during the 3 treatment periods: before rucaparib dosing (day 1 to 5), rucaparib dosing alone (day 6 to 18), and rucaparib with and after probe drug (day 19 to 23). Safety and tolerability assessments were made based on adverse events (AEs), clinical laboratory results, vital signs, 12-lead electrocardiogram (ECG) measurements, body weight, physical examination, concomitant medication/procedures, and ECOG performance status. AEs were classified according to the Medical Dictionary for Regulatory Activities (MedDRA) classification system version 22.1 [17] and graded according to the Common Terminology Criteria for Adverse Events (CTCAE) version 4.03 [18].

[4] = Safety: TEAEs, Arm A (rucaparib + rosuvastatin); assay type: in vivo, human
Protocol: as §1

[5] = test system: breast cancer resistance protein (BCRP); set-up: method as in PMID 32129697; conditions: read-out: 50% inhibitory concentration (IC50) for BCRP; transfected cells; cited from earlier work
CYP3A = test system: CYP3A; set-up: method as in PMID 30427584; conditions: patients with an advanced solid tumor; cited from earlier work

SMILES: CNCc1ccc(-c2[nH]c3cc(F)cc4c3c2CCNC4=O)cc1 [rucaparib]
- IC50 (CYP3As): 17.2 to 22.9 µM
- CYP3A4 mRNA expression (CYP3A4): down-regulated
- CYP3A activities (CYP3A4): reduced
- steady state of plasma rucaparib PK achieved by day [1]: ≤ 8 days
- days of continuous rucaparib dosing to steady state [2]: 4 days
- Pharyngitis bacterial ([3]; Arm B, maximum severity 1): 1 (5.6) n (%)
- patients who experienced at least 1 TEAE ([3]; female, human, in vivo): 50.0%
- patients with TEAEs considered related to rucaparib ([3]; female, human, in vivo): 7 patients
- Abdominal discomfort ([3]; human, in vivo): 1 (5.6) n (%)
- Abdominal pain ([3]; human, in vivo): 1 (5.6) n (%)
- Accident ([3]; human, in vivo): 1 (5.6) n (%)
- Acute kidney injury ([3]; human, in vivo): 1 (5.6) n (%)
- Apathy ([3]; human, in vivo): 1 (5.6) n (%)
- Arthropod bite ([3]; human, in vivo): 1 (5.6) n (%)
- Ascites ([3]; human, in vivo): 1 (5.6) n (%)
- Aspartate aminotransferase increased ([3]; human, in vivo): 1 (5.6) n (%)
- Cerebrovascular accident ([3]; human, in vivo): 0 n (%)
- Diarrhea ([3]; human, in vivo): 0 n (%)
- Dysgeusia ([3]; human, in vivo): 2 (11.1) n (%)
- Erythema ([3]; human, in vivo): 0 n (%)
- General disorders and administration site conditions ([3]; human, in vivo): 1 (5.6) n (%)
- Headache ([3]; human, in vivo): 1 (5.6) n (%)
- Infections and infestations ([3]; human, in vivo): 1 (5.6) n (%)
- Injury, poisoning, and procedural complications ([3]; human, in vivo): 1 (5.6) n (%)
- Musculoskeletal and connective tissue disorders ([3]; human, in vivo): 1 (5.6) n (%)
- Musculoskeletal pain ([3]; human, in vivo): 1 (5.6) n (%)
- Nausea ([3]; human, in vivo): 1 (5.6) n (%)
- Onycholysis ([3]; human, in vivo): 1 (5.6) n (%)
- Peripheral swelling ([3]; human, in vivo): 1 (5.6) n (%)
- Psychiatric disorders ([3]; human, in vivo): 1 (5.6) n (%)
- Renal and urinary disorders ([3]; human, in vivo): 1 (5.6) n (%)
- Skin and subcutaneous tissue disorders ([3]; human, in vivo): 1 (5.6) n (%)
- Skin hemorrhage ([3]; human, in vivo): 1 (5.6) n (%)
- Somnolence ([3]; human, in vivo): 1 (5.6) n (%)
- Taste disorder ([3]; human, in vivo): 1 (5.6) n (%)
- Thrombocytopenia ([3]; human, in vivo): 0 n (%)
- Abdominal distension ([4]; maximum severity 1): 1 (5.9) n (%)
- Abdominal pain ([4]; maximum severity 1): 1 (5.9) n (%)
- Blood creatinine increased ([4]; maximum severity 1): 1 (5.9) n (%)
- Diarrhea ([4]; maximum severity 1): 2 (11.8) n (%)
- Dyspepsia ([4]; maximum severity 1): 1 (5.9) n (%)
- Electrocardiogram QT prolonged ([4]; maximum severity 1): 1 (5.9) n (%)
- Gastrointestinal disorders ([4]; maximum severity 1): 3 (17.6) n (%)
- General disorders and administration site conditions ([4]; maximum severity 1): 1 (5.9) n (%)
- Infections and infestations ([4]; maximum severity 1): 1 (5.9) n (%)
- Investigations ([4]; maximum severity 1): 2 (11.8) n (%)
- Nasopharyngitis ([4]; maximum severity 1): 1 (5.9) n (%)
- Peripheral swelling ([4]; maximum severity 1): 1 (5.9) n (%)
- Reproductive system and breast disorders ([4]; maximum severity 1): 0 n (%)
- Total patients with events ([4]; maximum severity 1): 5 (29.4) n (%)
- Vaginal hemorrhage ([4]; maximum severity 1): 0 n (%)
- Vomiting ([4]; maximum severity 1): 0 n (%)
- Abdominal pain ([4]; maximum severity 2): 1 (5.9) n (%)
- Abdominal pain upper ([4]; maximum severity 2): 1 (5.9) n (%)
- Body temperature increased ([4]; maximum severity 2): 0 n (%)
- Cardiac disorders ([4]; maximum severity 2): 1 (5.9) n (%)
- Diarrhea ([4]; maximum severity 2): 1 (5.9) n (%)
- Dyspepsia ([4]; maximum severity 2): 0 n (%)
- Electrocardiogram QT prolonged ([4]; maximum severity 2): 0 n (%)
- Gastrointestinal disorders ([4]; maximum severity 2): 3 (17.6) n (%)
- General disorders and administration site conditions ([4]; maximum severity 2): 2 (11.8) n (%)
- Infections and infestations ([4]; maximum severity 2): 1 (5.9) n (%)
- Investigations ([4]; maximum severity 2): 0 n (%)
- Noncardiac chest pain ([4]; maximum severity 2): 1 (5.9) n (%)
- Peripheral swelling ([4]; maximum severity 2): 1 (5.9) n (%)
- Sinus tachycardia ([4]; maximum severity 2): 1 (5.9) n (%)
- Total patients with events ([4]; maximum severity 2): 5 (29.4) n (%)
- Urinary tract infection ([4]; maximum severity 2): 1 (5.9) n (%)
- Vomiting ([4]; maximum severity 2): 1 (5.9) n (%)
- Deep vein thrombosis ([4]; maximum severity 3): 1 (5.9) n (%)
- Total patients with events ([4]; maximum severity 3): 1 (5.9) n (%)
- Vascular disorders ([4]; maximum severity 3): 1 (5.9) n (%)
- Pulmonary embolism ([4]; maximum severity 4): 1 (5.9) n (%)
- Respiratory, thoracic, and mediastinal disorders ([4]; maximum severity 4): 1 (5.9) n (%)
- Total patients with events ([4]; maximum severity 4): 1 (5.9) n (%)
- TEAEs considered related to rucaparib by the investigator ([4]; rucaparib alone day 5 to 19, of 10 patients with TEAE): 3
- IC50 [5]: 55 µM
- inhibition of CYP3A at steady state (CYP3A): weakly inhibited
